Laboratory results published in US10681909B2, “Herbicidal triazoles” (FMC Corporation, priority 2014, dated 2020).

How the values were obtained:
wheat (winter wheat) = experiment: Test C preemergence; type: in vivo, Triticum aestivum; conditions: for Wheat plant response rating (0 to 100): Preemergence, visual rating after 13 to 15 d
Source text: (§1) Seeds of plant species selected from blackgrass (Alopecurus myosuroides), ryegrass, Italian (Italian ryegrass, Lolium multiflorum), wheat (winter wheat, Triticum aestivum), galium (catchweed bedstraw, Galium aparine), corn (Zea mays), crabgrass, large (large crabgrass, Digitaria sanguinalis), foxtail, giant, (giant foxtail, Setaria faberii), johnsongrass (Sorghum halepense), lambsquarters (Chenopodium album), morningglory (Ipomoea coccinea), nutsedge, yellow (yellow nutsedge, Cyperus esculentus), pigweed (Amaranthus retroflexus), ragweed (common ragweed, Ambrosia elatior), soybean (Glycine max), barnyardgrass (Echinochloa crus-galli), oilseed rape (Brassica napus), waterhemp (common waterhemp, Amaranthus rudis), and velvetleaf (Abutilon theophrasti) were planted into a blend of loam soil and sand and treated preemergence with test chemicals formulated in a non-phytotoxic solvent mixture which included a surfactant. At the same time, plants selected from these crop and weed species and also chickweed (common chickweed, Stellaria media), oat, wild (wild oat, Avena fatua), and kochia (Kochia scoparia), were planted in pots containing Sunshine Redi-Earth® planting medium comprising spaghnum peat moss, vermiculite, starter nutrients and dolomitic limestone and treated with postemergence applications of test chemicals formulated in the same manner. Plants ranged in height from 2 to 18 cm (1- to 4-leaf stage) for postemergence treatments. […] A dash (-) response means no test result.

velvetleaf = experiment: Test C preemergence; type: in vivo, Abutilon theophrasti; conditions: for Velvetleaf plant response rating (0 to 100): Preemergence, visual rating after 13 to 15 d
Source text: as §1

bluegrass = experiment: Test D postemergence; type: in vivo, Poa annua; conditions: scale 0 to 100
Source text: (§2) Seeds of plant species selected from bluegrass (annual bluegrass, Poa annua), blackgrass (Alopecurus myosuroides), canarygrass (Phalaris minor), chickweed (common chickweed, Stellaria media), galium (catchweed bedstraw, Galium aparine), bromegrass, down (downy bromegrass, Bromus tectorum), Russian thistle (Salsola kali), field poppy (Papaver rhoeas), field violet (Viola arvensis), foxtail, green (green foxtail, Setaria viridis), deadnettle (henbit deadnettle, Lamium amplexicaule), ryegrass, Ital. (Italian ryegrass, Lolium multiflorum), kochia (Kochia scoparia), lambsquarters (Chenopodium album), oilseed rape (Brassica napus), pigweed (Amaranthus retroflexus), chamomile (scentless chamomile, Matricaria inodora), speedwell (bird's-eye speedwell, Veronica persica), barley, spring (spring barley, Hordeum vulgare), wheat, spring (spring wheat, Triticum aestivum), buckwheat, wild (wild buckwheat, Polygonum convolvulus), wild mustard (Sinapis arvensis), oat, wild (wild oat, Avena fatua), radish, wild (wild radish, Raphanus raphanistrum), […]), barley, winter (winter barley, Hordeum vulgare), and wheat, winter (winter wheat, Triticum aestivum) were planted into a silt loam soil and treated preemergence with test chemicals formulated in a non-phytotoxic solvent mixture which included a surfactant. At the same time, these species were planted in pots containing Sunshine Redi-Earth® planting medium comprising spaghnum peat moss, vermiculite, starter nutrients and dolomitic limestone and treated with postemergence applications of the test chemicals formulated in the same manner. Plants ranged in height from 2 to 18 cm (1- to 4-leaf stage). Treated plants and controls were maintained in a controlled growth environment for 14 to 21 d after which time all species were compared to controls and visually evaluated. […] A dash (-) response means no test result.

oat, wild = experiment: Test D preemergence; type: in vivo, Avena fatua; conditions: for Plant response rating: Oat, Wild: scale 0 to 100
Source text: as §2

chamomile = experiment: Test D preemergence; type: in vivo, Matricaria inodora; conditions: for Plant response rating: Chamomile: scale 0 to 100
Source text: as §2

canarygrass [1] = experiment: Test D postemergence; type: in vivo, Phalaris minor; conditions: scale 0 to 100
Source text: as §2

chickweed = experiment: Test D preemergence; type: in vivo, Stellaria media; conditions: for Plant response rating: Chickweed: scale 0 to 100
Source text: as §2

corn = experiment: Test C preemergence; type: in vivo, Zea mays; conditions: for Plant response rating (scale of 0 to 100 where 0 is no effect and 100 is complete control): Corn, preemergence; for Corn plant response rating (0 to 100): Preemergence, visual rating after 13 to 15 d
Source text: as §1

speedwell = experiment: Test D postemergence; type: in vivo, Veronica persica; conditions: scale 0 to 100
Source text: as §2

deadnettle [2] = experiment: Test D preemergence; type: in vivo, Lamium amplexicaule; conditions: for Plant response rating: Deadnettle: scale 0 to 100
Source text: as §2

canarygrass [3] = experiment: Test D preemergence; type: in vivo, Phalaris minor; conditions: for Plant response rating: Canarygrass: scale 0 to 100
Source text: as §2

johnsongrass = experiment: Test C preemergence; type: in vivo, Sorghum halepense; conditions: for Plant response rating (scale of 0 to 100 where 0 is no effect and 100 is complete control): Johnsongrass, preemergence; for Johnsongrass plant response rating (0 to 100): Preemergence, visual rating after 13 to 15 d
Source text: as §1

deadnettle [4] = experiment: Test D postemergence; type: in vivo, Lamium amplexicaule; conditions: scale 0 to 100
Source text: as §2

[5] = 16 g ai/ha, 0 is no effect, 100 is complete control

## FC(F)(F)COc1nc(-c2ccc(Cl)cc2)nn1Cc1ccnc(C(F)(F)F)c1 [Compound 31]
Wheat (winter wheat); 31 g ai/ha
  Wheat plant response rating (0 to 100): 0
Wheat (winter wheat); 62 g ai/ha
  Wheat plant response rating (0 to 100): 5
Wheat (winter wheat); Wheat, preemergence, 250 g ai/ha
  Plant response rating (scale of 0 to 100 where 0 is no effect and 100 is complete control): 35
velvetleaf; 31 g ai/ha
  Velvetleaf plant response rating (0 to 100): 35
velvetleaf; 62 g ai/ha
  Velvetleaf plant response rating (0 to 100): 55
velvetleaf; Velvetleaf, preemergence, 250 g ai/ha
  Plant response rating (scale of 0 to 100 where 0 is no effect and 100 is complete control): 80
bluegrass; 16 g ai/ha
  Plant response rating: Bluegrass: 50
bluegrass; 31 g ai/ha
  Plant response rating: Bluegrass: 65
bluegrass; 62 g ai/ha
  Plant response rating: Bluegrass: 75
bluegrass; 125 g ai/ha
  Plant response rating: Bluegrass: 85
oat, wild; [5]
  Plant response rating (0 to 100), Oat, Wild: 35
oat, wild; 62 g ai/ha
  Plant response rating: Oat, Wild: 55
oat, wild; 125 g ai/ha
  Plant response rating: Oat, Wild: 75
chamomile; [5]
  Plant response rating (0 to 100), Chamomile: 30
chamomile; 31 g ai/ha
  Plant response rating: Chamomile: 95
chamomile; 62 g ai/ha
  Plant response rating: Chamomile: 100
chamomile; 125 g ai/ha
  Plant response rating: Chamomile: 100
Canarygrass [1]; 16 g ai/ha
  Plant response rating: Canarygrass: 65
Canarygrass [1]; 31 g ai/ha
  Plant response rating: Canarygrass: 75
Canarygrass [1]; 62 g ai/ha
  Plant response rating: Canarygrass: 80
Canarygrass [1]; 125 g ai/ha
  Plant response rating: Canarygrass: 80
chickweed; [5]
  Plant response rating (0 to 100), Chickweed: 80
chickweed; 31 g ai/ha
  Plant response rating: Chickweed: 90
chickweed; 62 g ai/ha
  Plant response rating: Chickweed: 100
chickweed; 125 g ai/ha
  Plant response rating: Chickweed: 100
corn; 125 g ai/ha
  Plant response rating (scale of 0 to 100 where 0 is no effect and 100 is complete control): 20
corn; 250 g ai/ha
  Plant response rating (scale of 0 to 100 where 0 is no effect and 100 is complete control): 25
corn; 31 g ai/ha
  Corn plant response rating (0 to 100): 0
corn; 62 g ai/ha
  Corn plant response rating (0 to 100): 0
speedwell; 16 g ai/ha
  Plant response rating: Speedwell: 95
speedwell; 31 g ai/ha
  Plant response rating: Speedwell: 90
speedwell; 62 g ai/ha
  Plant response rating: Speedwell: 100
speedwell; 125 g ai/ha
  Plant response rating: Speedwell: 100
Deadnettle [2]; [5]
  Plant response rating (0 to 100), Deadnettle: 80
Deadnettle [2]; 31 g ai/ha
  Plant response rating: Deadnettle: 80
Deadnettle [2]; 62 g ai/ha
  Plant response rating: Deadnettle: 90
Deadnettle [2]; 125 g ai/ha
  Plant response rating: Deadnettle: 100
Canarygrass [3]; [5]
  Plant response rating (0 to 100), Canarygrass: 50
Canarygrass [3]; 31 g ai/ha
  Plant response rating: Canarygrass: 85
Canarygrass [3]; 62 g ai/ha
  Plant response rating: Canarygrass: 90
Canarygrass [3]; 125 g ai/ha
  Plant response rating: Canarygrass: 100
johnsongrass; 125 g ai/ha
  Plant response rating (scale of 0 to 100 where 0 is no effect and 100 is complete control): 85
johnsongrass; 250 g ai/ha
  Plant response rating (scale of 0 to 100 where 0 is no effect and 100 is complete control): 95
johnsongrass; 31 g ai/ha
  Johnsongrass plant response rating (0 to 100): 75
johnsongrass; 62 g ai/ha
  Johnsongrass plant response rating (0 to 100): 80
Deadnettle [4]; 16 g ai/ha
  Plant response rating: Deadnettle: 75
Deadnettle [4]; 31 g ai/ha
  Plant response rating: Deadnettle: 75
Deadnettle [4]; 62 g ai/ha
  Plant response rating: Deadnettle: 80
Deadnettle [4]; 125 g ai/ha
  Plant response rating: Deadnettle: 95
